Laboratory results taken from US7662988B2, “Ester compound and its use” (Sumitomo Chemical Company, Limited, priority 2006, dated 2010).

Experiments:
[1] = test system: Adult houseflies; test: Housefly knock-down test, 0.025% oil solution spray in cubic chamber; type: in vivo; settings: 0.7 ml of 0.025% oil solution sprayed in 70 cm cubic chamber, 2 minutes after spraying
Procedure: A solution of 0.025 part of the present compound (A) in 10 parts of dichloromethane was mixed with 89.975 parts of deodorized kerosene to obtain a 0.025% oil solution.
(§1) Adult houseflies (5 males and 5 females) were left in a cubic chamber (70 cm at each side). Into the chamber, 0.7 ml of 0.025% oil solution of the present compound (A) prepared above was sprayed with a spray gun at a pressure of 8.8×10^4 Pa from a small window on the side of the chamber. Two minutes after spraying, the number of the knocked-down insects was counted (repeated twice).
The same test was carried out except that 4-propargyl-2,3,5,6-tetrafluorobenzyl (1R)-trans-3-(2-methyl-1-propenyl)-2,2-dimethylcyclopropanecarboxylate represented by the formula:
[drawing 7] (The compound described as compound 2 in TABLE 1 of EP 0196156 A1; hereinafter, referred to as the comparative compound 1) was used instead of the present compound (A).
Knock-down ratios, i.e., ratios of the number of knocked-down insects 2 minutes after the spraying to the number of tested insects, are shown in Table 1.

[2] = test system: Adult houseflies; test: Housefly KT90 test, 0.00625% oil solution spray in cubic chamber; type: in vivo; settings: 0.7 ml of 0.00625% oil solution sprayed in 70 cm cubic chamber, counted up to 10 minutes after spraying
Procedure: A solution of 0.00625 part of the present compound (A) in 10 parts of dichloromethane was mixed with 89.99375 parts of deodorized kerosene to obtain a 0.00625% oil solution.
as §1, with “0.00625%” for “0.025%”, “sprayed into the chamber” for “sprayed”, “Then, up to 10” for “Two”, “counted with time” for “counted”, “twice). The time required for knocking down 90% of the tested insects (KT90) was calculated from the results.” for “twice).”
The same tests were carried out except for using the comparative compound 1 and 4-methoxymethyl-2,3,5,6-tetrafluorobenzyl (1R)-trans-3-(2-cyano-1-propenyl)-2,2-dimethylcyclopropanecarboxylate represented by the formula:
[drawing 8] (The compound described in JP 2004-2363 A; hereinafter, referred to as the comparative compound 2.).

C#CCc1c(F)c(F)c(COC(=O)[C@@H]2[C@@H](C=C(C)C)C2(C)C)c(F)c1F [Comparative compound 1, 4-propargyl-2,3,5,6-tetrafluorobenzyl (1R)-trans-3-(2-methyl-1-propenyl)-2,2-dimethylcyclopropanecarboxylate]
Knock-down ratio (%) [1]: 0%
KT90 (minutes), time required for knocking down 90% of the tested insects [2]: Not less than 10 minutes

COCc1c(F)c(F)c(COC(=O)[C@@H]2[C@@H](C=C(C)C#N)C2(C)C)c(F)c1F [Comparative compound 2, 4-methoxymethyl-2,3,5,6-tetrafluorobenzyl (1R)-trans-3-(2-cyano-1-propenyl)-2,2-dimethylcyclopropanecarboxylate]
KT90 (minutes), time required for knocking down 90% of the tested insects [2]: 4.3 min

C#CCc1c(F)c(F)c(COC(=O)[C@@H]2[C@@H](C=C(C)C#N)C2(C)C)c(F)c1F [Present compound (A), 4-propargyl-2,3,5,6-tetrafluorobenzyl (1R)-trans-3-(2-cyano-1-propenyl)-2,2-dimethylcyclopropanecarboxylate]
Knock-down ratio (%) [1]: 100%
KT90 (minutes), time required for knocking down 90% of the tested insects [2]: 2.0 min
